According to US4537717A:
In brackets after ≈: the same amount, converted by molar mass.

Legend:
[1] = test system: Streptococcus pneumoniae Park I; assay type: cell-based; conditions: agar dilution; 2, 5, 17, 22 median of three tests; paired values two experiments
[2] = test system: Streptococcus pyogenes C203; assay type: cell-based; conditions: agar dilution; 2, 5, 17, 22 median of three tests; paired values two experiments
[3] = test system: Staphylococcus epidermidis EPI2; assay type: cell-based; conditions: agar dilution; 2, 5, 17, 22 median of three tests; paired values two experiments
[4] = test system: Streptococcus Group 9960; assay type: cell-based, Streptococcus pneumoniae; conditions: agar dilution; 2, 5, 17, 22 median of three tests; paired values two experiments
[5] = test system: Staphylococcus aureus X400; assay type: cell-based; conditions: methicillin-resistant strain; agar dilution; 2, 5, 17, 22 median of three tests; paired values two experiments
[6] = test system: Streptococcus pyogenes; assay: in vivo activity against experimental bacterial infection (ED50); conditions: mice, dose protecting fifty percent of test animals; for ED50 Streptococcus pyogenes Oral: two doses orally; for ED50 Streptococcus pyogenes Subcutaneous: two doses subcutaneously
[7] = test system: Streptococcus pneumoniae Group D X66; assay type: cell-based; conditions: agar dilution; 2, 5, 17, 22 median of three tests; paired values two experiments
[8] = test system: Staphylococcus aureus X1.1; assay type: cell-based; conditions: agar dilution; 2, 5, 17, 22 median of three tests; paired values two experiments
[9] = test system: Staphylococcus aureus; assay: in vivo activity against experimental bacterial infection (ED50); conditions: mice; two doses subcutaneously; dose protecting fifty percent of test animals
[10] = test system: Staphylococcus epidermidis EPI1; assay type: cell-based; conditions: agar dilution; 2, 5, 17, 22 median of three tests; paired values two experiments
[11] = test system: Staphylococcus aureus ATCC 6738P; assay: agar-plate disc-diffusion test; assay type: cell-based; conditions: suspended in water at 1 mg/ml; 7 mm disc; 24-48 hours at 25-37° C.
[12] = toxicity test (LD50); conditions: mouse, in vivo, iv, mice; administered intravenously
[13] = test system: Staphylococcus aureus V41; assay type: cell-based; conditions: penicillin-resistant strain; agar dilution; 2, 5, 17, 22 median of three tests; paired values two experiments
[14] = test system: Bacillus subtilis ATCC 6633; assay: agar-plate disc-diffusion test; conditions: 7 mm disc, 24-48 hours at 25-37° C.; for Size of Zone of Inhibition (mm) B. subtilis ATCC 6633, grown on minimal nutrient agar: 1 mg/ml; for Size of Zone of Inhibition (mm) Bacillus subtilis ATCC 6633: suspended in water at 1 mg/ml
Experimental: ^a Compounds were suspended in water at a concentration of 1 mg/ml; a
7 mm disc was dipped into the suspension and then placed on the agar
surface; incubation: 24-48 hours at 25-37° C.
^b Grown on minimal nutrient agar

[15] = test system: Micrococcus luteus ATCC 9341; assay: agar-plate disc-diffusion test; assay type: cell-based; conditions: suspended in water at 1 mg/ml; 7 mm disc; 24-48 hours at 25-37° C.

SMILES: CCCCCCCCCCCCC(=O)N[C@@H](Cc1c[nH]c2ccccc12)C(=O)N[C@@H](CC(N)=O)C(=O)N[C@@H](CC(=O)O)C(=O)N[C@@H]1C(=O)NCC(=O)N[C@@H](CCCN)C(=O)N[C@@H](CC(=O)O)C(=O)N[C@H](C)C(=O)N[C@@H](CC(=O)O)C(=O)NCC(=O)N[C@H](CO)C(=O)N[C@@H]([C@H](C)CC(=O)O)C(=O)N[C@@H](CC(=O)c2ccccc2N)C(=O)O[C@@H]1C [Compound 7]
- MIC Streptococcus pneumoniae Park I [1]: 0.25 µg/mL (≈ 0.15 µM)
- MIC Streptococcus pyogenes C203 [2]: 0.25 µg/mL (≈ 0.15 µM)
- MIC Staphylococcus epidermidis EPI2 [3]: 0.5 µg/mL (≈ 0.301 µM)
- MIC Streptococcus pneumoniae Group 9960 [4]: 32 µg/mL (≈ 19.2 µM)
- MIC Staphylococcus aureus X400 [5]: 0.5 µg/mL (≈ 0.301 µM)
- ED50 Streptococcus pyogenes Oral [6]: 45 mg/kg × 2
- ED50 Streptococcus pyogenes Subcutaneous [6]: 0.046 mg/kg × 2
- MIC Streptococcus pneumoniae Group D X66 [7]: 0.03 µg/mL (≈ 0.018 µM)
- MIC Staphylococcus aureus X1.1 [8]: 0.125 µg/mL (≈ 0.0752 µM)
- ED50 Staphylococcus aureus Subcutaneous [9]: 0.54 mg/kg × 2
- MIC Staphylococcus epidermidis EPI1 [10]: 0.5 µg/mL (≈ 0.301 µM)
- Size of Zone of Inhibition (mm) Staphylococcus aureus ATCC 6738P [11]: 21 mm
- LD50 [12]: 112 mg/kg
- MIC Staphylococcus aureus V41 [13]: 0.125 µg/mL (≈ 0.0752 µM)
- Size of Zone of Inhibition (mm) B. subtilis ATCC 6633, grown on minimal nutrient agar [14]: 29 mm
- Size of Zone of Inhibition (mm) Bacillus subtilis ATCC 6633 [14]: 17 mm
- Size of Zone of Inhibition (mm) Micrococcus luteus ATCC 9341 [15]: 19 mm

SMILES: CCCCCCCCCCC(=O)NCCC[C@@H]1NC(=O)CNC(=O)[C@@H](NC(=O)[C@H](CC(=O)O)NC(=O)[C@H](CC(N)=O)NC(=O)[C@H](Cc2c[nH]c3ccccc23)NC(=O)CCCCCCCCCC)[C@@H](C)OC(=O)[C@H](CC(=O)c2ccccc2N)NC(=O)[C@H]([C@H](C)CC(=O)O)NC(=O)[C@@H](CO)NC(=O)CNC(=O)[C@H](CC(=O)O)NC(=O)[C@@H](C)NC(=O)[C@H](CC(=O)O)NC1=O [Compound 17]
- MIC Streptococcus pneumoniae Park I [1]: 0.125 µg/mL (≈ 0.0693 µM)
- MIC Streptococcus pyogenes C203 [2]: 0.25 µg/mL (≈ 0.139 µM)
- MIC Staphylococcus epidermidis EPI2 [3]: 8 µg/mL (≈ 4.44 µM)
- MIC Streptococcus pneumoniae Group 9960 [4]: 8 µg/mL (≈ 4.44 µM)
- MIC Staphylococcus aureus X400 [5]: 4 µg/mL (≈ 2.22 µM)
- ED50 Streptococcus pyogenes Oral [6]: > 200 mg/kg × 2
- ED50 Streptococcus pyogenes Subcutaneous [6]: 2.85 mg/kg × 2
- MIC Streptococcus pneumoniae Group D X66 [7]: 8 µg/mL (≈ 4.44 µM)
- MIC Staphylococcus aureus X1.1 [8]: 1 µg/mL (≈ 0.555 µM)
- ED50 Staphylococcus aureus Subcutaneous [9]: > 35 mg/kg × 2
- MIC Staphylococcus epidermidis EPI1 [10]: 8 µg/mL (≈ 4.44 µM)
- Size of Zone of Inhibition (mm) Staphylococcus aureus ATCC 6738P [11]: 17 mm
- LD50 [12]: 94 mg/kg
- MIC Staphylococcus aureus V41 [13]: 4 µg/mL (≈ 2.22 µM)
- Size of Zone of Inhibition (mm) B. subtilis ATCC 6633, grown on minimal nutrient agar [14]: 20 mm
- Size of Zone of Inhibition (mm) Bacillus subtilis ATCC 6633 [14]: 13 mm
- Size of Zone of Inhibition (mm) Micrococcus luteus ATCC 9341 [15]: 14 mm
